Test results: US20090098529A1 (priority 2006, published 2009)

System: GI-101A tumors
Parameters: species or system nude mice
Details: mouse, in vivo

| SMILES | Effect on tumor growth |
| --- | --- |
| N.N.[Cl][Pt][Cl] [Cisplatin, cis-diamminedichloroplatinum] | decreased the rate of tumor growth, but did not shrink tumors |
| COc1cccc2c1C(=O)c1c(O)c3c(c(O)c1C2=O)C[C@@](O)(C(=O)CO)C[C@@H]3O[C@H]1C[C@H](N)[C@H](O)[C@H](C)O1 [Doxorubicin, doxorubicin] | did not have any effect on the rate of tumor growth |
